Counter-ions that a name gives are not always drawn.
Test system: nasopharyngeal carcinoma
Test: Efficacy on nasopharyngeal carcinoma: patient case reports treated orally with capsules of the compound of Example 1
Assay type: in vivo, human
Set-up: key to evaluation according to RECIST 1.1: CR: complete remission, which means that target lesions of tumors have disappeared and no new lesions appear which is maintained for at least 4 weeks; PR: partial remission, which means 30% or more decrease in the sum of the diameters of target lesions of tumors than the baseline level, which is maintained for at least 4 weeks; PD: the progression of disease, which means 20% or more increase in the diameters of target lesions of tumors than the baseline level; SD: stable disease, which means the sum of diameters of all target leisions neither shrink to qualify for PR nor sufficient increase to qulify for PD
Description: During or after radiotherapy, the patients are treated with the capsules of the compound of Example 1 at 12 mg qd. The administration is continuously performed for 2 weeks and rest for 1 week, followed by continuously administrating for 2 weeks and resting for 1 week as a cycle. The target lesions are regularly evaluated, and the treatment regimen is terminated according to the evaluation results.
Subsequently, the patient took orally the capsules of 12 mg of the compound of Example 1 once per day for treatment (continuously administrating for 2 weeks and resting for 1 week as a treatment cycle). […] After 4 cycles of treatment, evaluated as PR according to RECIST 1.1, and the sum of the target lesions was 10 mm, which was reduced by 9 mm from the baseline. After 8 cycles of treatment, the sum of the target lesions was 9 mm, which was reduced by 10 mm from the baseline.
From Mar. 2, 2017, the patient started to take orally the capsules of 12 mg of the compound of Example 1 once per day for treatment (continuously administrating for 2 weeks and resting for 1 week as a treatment cycle). On Apr. […] The treatment with the capsules of the compound of Example 1 was continued.
Three months later, the patient started to take orally the capsules of 12 mg of the compound of Example 1 once per day for treatment (continuously administrating for 2 weeks and resting for 1 week as a treatment cycle). […] The treatment with the capsules of the compound of Example 1 was continued.

[1] = Example 4, patient, 12 mg once per day orally, after 2 cycles
[2] = Example 4, patient, 12 mg once per day orally, after 4 cycles
[3] = Example 4, patient, 12 mg once per day orally, after 8 cycles
[4] = Example 5, patient, 12 mg once per day orally, after 2 cycles
[5] = Example 5, patient, 12 mg once per day orally, after 4 cycles
[6] = Example 5, patient, 12 mg once per day orally, after 6 cycles
[7] = Example 5, patient, 12 mg once per day orally, after 12 cycles
[8] = Example 5, patient, 12 mg once per day orally, after 16 cycles
[9] = Example 6, patient, 12 mg once per day orally, after 2 cycles
[10] = Example 6, patient, 12 mg once per day orally, after 4 cycles

Q: For `COc1cc2c(Oc3ccc4[nH]c(C)cc4c3F)ccnc2cc1OCC1(N)CC1` [Example 1, 1-[[[4-fluoro-2-methyl-1H-indol-5-yl)oxy-6-methoxyquinolin-7-yl]oxy]methyl]cyclopropylamine dihydrochloride], which “evaluation according to RECIST 1.1” value (Example 4, patient, 12 mg once per day orally, 2 weeks on/1 week off, after 2 cycles) is on record?
A: Its value is “PR (partial remission, which means 30% or more decrease in the sum of the diameters of target lesions of tumors than the baseline level, which is maintained for at least 4 weeks)”.

Q: And the “reduction of sum of the target lesions from the baseline” value (from here on “reduction of sum of the target lesions”) [1]?
A: The value was 7 mm.

Q: And the “sum of the target lesions” value [1]?
A: Its value is 12 mm.

Q: And the “evaluation according to RECIST 1.1” value [2]?
A: The value was “PR (partial remission, which means 30% or more decrease in the sum of the diameters of target lesions of tumors than the baseline level, which is maintained for at least 4 weeks)”.

Q: What about the “reduction of sum of the target lesions” value [2] of the same compound?
A: The value was 9 mm.

Q: What about the “sum of the target lesions” value [2] of the same compound?
A: Its value is 10 mm.

Q: And the “reduction of sum of the target lesions” value [3]?
A: Its value is 10 mm.

Q: What about the “sum of the target lesions” value [3] of the same compound?
A: The value was 9 mm.

Q: What about the “adverse reaction during the administration” value (Example 4, patient, 12 mg once per day orally, relieved after medication and dosage reduction) of the same compound?
A: The value was “Grade 3 hypertension”.

Q: And the “evaluation according to RECIST 1.1” value (Example 5, patient, 12 mg once per day orally, 2 weeks on/1 week off, after 2 cycles)?
A: Its value is “PR (partial remission, which means 30% or more decrease in the sum of the diameters of target lesions of tumors than the baseline level, which is maintained for at least 4 weeks)”.

Q: What about the “reduction of sum of the target lesions” value [4] of the same compound?
A: Its value is 17 mm.

Q: And the “sum of the target lesions” value [4]?
A: Its value is 30 mm.

Q: What about the “evaluation according to RECIST 1.1” value [5] of the same compound?
A: Its value is “PR (partial remission, which means 30% or more decrease in the sum of the diameters of target lesions of tumors than the baseline level, which is maintained for at least 4 weeks)”.

Q: What about the “reduction of sum of the target lesions” value [5] of the same compound?
A: The value was 19 mm.

Q: And the “sum of the target lesions” value [5]?
A: Its value is 28 mm.

Q: What about the “evaluation according to RECIST 1.1” value [6] of the same compound?
A: Its value is “PR (partial remission, which means 30% or more decrease in the sum of the diameters of target lesions of tumors than the baseline level, which is maintained for at least 4 weeks)”.

Q: What about the “reduction of sum of the target lesions” value [6] of the same compound?
A: The value was 23 mm.

Q: What about the “sum of the target lesions” value [6] of the same compound?
A: Its value is 24 mm.

Q: And the “evaluation according to RECIST 1.1” value [7]?
A: The value was “PR (partial remission, which means 30% or more decrease in the sum of the diameters of target lesions of tumors than the baseline level, which is maintained for at least 4 weeks)”.

Q: What about the “reduction of sum of the target lesions” value [7] of the same compound?
A: Its value is 23 mm.

Q: And the “sum of the target lesions” value [7]?
A: The value was 24 mm.

Q: What about the “evaluation according to RECIST 1.1” value [8] of the same compound?
A: The value was “PR (partial remission, which means 30% or more decrease in the sum of the diameters of target lesions of tumors than the baseline level, which is maintained for at least 4 weeks)”.

Q: And the “reduction of sum of the target lesions” value [8]?
A: Its value is 24 mm.

Q: And the “sum of the target lesions” value [8]?
A: The value was 23 mm.

Q: And the “evaluation according to RECIST 1.1” value (Example 6, patient, 12 mg once per day orally, 2 weeks on/1 week off, after 2 cycles)?
A: Its value is “SD”.

Q: What about the “reduction of sum of the target lesions” value [9] of the same compound?
A: Its value is 18 mm.

Q: And the “sum of the target lesions” value [9]?
A: Its value is 47 mm.

Q: What about the “evaluation according to RECIST 1.1” value [10] of the same compound?
A: The value was “PR (partial remission, which means 30% or more decrease in the sum of the diameters of target lesions of tumors than the baseline level, which is maintained for at least 4 weeks)”.

Q: What about the “reduction of sum of the target lesions” value [10] of the same compound?
A: The value was 23 mm.

Q: And the “sum of the target lesions” value [10]?
A: The value was 42 mm.

Q: And the “adverse reaction during the administration” value (Example 6, patient, alleviated by antihypertensive drugs and dose reduction to 10 mg and 8 mg)?
A: Its value is “Grades 2 and 3 hypertension”.

— patent US11419862B2, “Quinoline derivative for treatment of nasopharyngeal carcinoma” (CHIA TAI TIANQING PHARMACEUTICAL GROUP CO., LTD., priority 2018, dated 2022)
